According to patent publication US12486274B2, “Substituted pyrazolo-pyrimidines and uses thereof” (Verge Analytics, Inc., priority 2020, dated 2025):

Columns and labels:
[1] = tested on: C9 iPSC MN (ALS patient derived motor neurons); test: iPSC MN Survival assay; assay type: cell-based, human; details: for C9 iPSC MN Survival hazard ratio: maximal reduction in hazard ratio vs control (Cox regression), <1.0 indicates increased survival; for EC50: Homo sapiens, iPSC, 144 h, motor neurons in nutrient deprived media (HBSS), six days, GFP imaging, read-out: C9 iPSC MN Significant survival rescue EC50
Experimental: [The source words this procedure for another variant and reports this variant under the same test.] iPSC MN Survival assay: Fibroblasts from ALS patients with known SOD1 A4V mutation were reprogrammed into inducible pluripotent stem cells (iPSC) and then differentiated to motor neurons. In culture, ALS patient derived motor neurons show increased death rate compared to motor neurons derived from healthy individuals in a stressed condition (nutrient deprived media, Hank's buffered salt solution-HBSS).
Cell rescue was measured following more than two different concentrations of each compound for six days with greater than four replicates in a 96-well format to ensure studies with power >0.8. Cells are transduced with a GFP reporter and imaged once a day to track survival. A broad-spectrum caspase inhibitor served as the positive control.
Microscopy image-based readout: Cells are transduced with a GFP reporter and imaged once a day with a blue laser to track survival. Imagers used include the Biotek Cytation 5 and Thermo Fisher EVOS Auto FL 2. All Images undergo uniform processing consisting of rolling hat background subtraction and contrast adjustment.
Cells are identified by their shape and each cell is tracked across images and time points for each well. Survival is visually assessed from the Kaplan-Meier curves. Survival of the cells is modeled and tested using a mixed effects Cox regression where each well is modeled as the random effect, and the group (control/treatment) as the fixed effect. Hazard ratios between treatment and control are estimated within the Cox regression where a value of 1.0 denotes no change, values >1.0 indicate decreased survival in response to treatment, and values <1.0 indicate increased survival in response to treatment. Data are presented as the maximal reduction in hazard ratio scores measured at various concentrations.

[2] = tested on: HEK 293T transfected with plasmids containing TDP-43 Q331K mutation; test: HEK/TDP Survival assay (Cell-Titer-Glo); assay type: cell-based; details: Homo sapiens; HEK 293T TDP-43 Q331K, 48 hrs, CTG readout
Experimental: HEK/TDP Survival assay: Immortalized human embryonic kidney 293T (HEK 293T) were transfected with plasmids containing TDP-43 Q331K mutation, resulting in an increase in cell death that is biologically relevant to ALS patients. Cell death is measured as reductions in the amount of ATP, an indicator of metabolically active cells, that is quantified by a luminescence Cell-Titer-Glo® (CTG) reagent. Compounds are evaluated in this model for changes in CTG compared to no treatment group. Increased signal indicates improved survival (rescue) and decreased signal indicates decreased survival.
Cell rescue was measured in a 96-well format with eight different concentrations of the test compound over 48 hrs with 6 replicates. The Promega Cell-Titer-Glo® Luminescent Cell Viability Assay was used to quantify ATP, an indicator of metabolically active cells (see protocol: https://www.promega.com/-/media/files/resources/protocols/technical-manuals/101/celltiterglo-2-O-assay-protocol.pdf?la=en). The luminescence signal was detected using the PerkinElmer En Vision or Molecular Devices SpectraMax.
The effect of a compound at a given dose on cell viability was determined using a three step procedure. First, Hedge's g for the Cell Titer-Glo luminescence values using six untreated wells on every plate as a control was calculated. […] Finally, values from all compound-dose pairs were corrected for multiple hypothesis testing using the Empirical Bayes framework of Stephens, M. (False discovery rates: a new deal, Biostatistics, 18 [2], 2017, 275-294) yielding credible intervals for the measured effect and associated s values.
Briefly, this method computes a local false sign rate for each experiment. Analogous to the local false discovery rate of Efron, B. (Size, power and false discovery rates, Ann. Statist. 35 [4], 2007, 1351-1377) this value measures the confidence in the sign of each effect (rather than confidence in each effect being non-zero). The s values reported in the previous figures are the expected fraction of errors if estimating the sign of all effects with greater absolute local false sign rate, defined in analogy to the q value of Storey, JD (The positive false discovery rate: a Bayesian interpretation and the q-value, Ann. Statist. 31 [6] 2003, 2013-2035).
Drugs that yielded signed log s values greater than 3 were considered hits. This threshold was determined by a separate calibration experiment in which Cell Titer-Glo® was measured in blank plates consisting of untreated cells to assess the noise inherent in the assay. Data are presented as the maximal effect of rescue obtained from the dose-response curve.

[3] = biological target: Full length human recombinant PIKFYVE (Homo sapiens (Human), UniProt Q9Y2I7); test: Inhibition of PIKfyve (microfluidic electrophoresis kinase assay); assay type: biochemical; details: 2 nM enzyme, PI3P/PS substrate, 3 h at room temperature, 12 concentrations
Chain of Full length human recombinant PIKFYVE (Q9Y2I7 whole entry): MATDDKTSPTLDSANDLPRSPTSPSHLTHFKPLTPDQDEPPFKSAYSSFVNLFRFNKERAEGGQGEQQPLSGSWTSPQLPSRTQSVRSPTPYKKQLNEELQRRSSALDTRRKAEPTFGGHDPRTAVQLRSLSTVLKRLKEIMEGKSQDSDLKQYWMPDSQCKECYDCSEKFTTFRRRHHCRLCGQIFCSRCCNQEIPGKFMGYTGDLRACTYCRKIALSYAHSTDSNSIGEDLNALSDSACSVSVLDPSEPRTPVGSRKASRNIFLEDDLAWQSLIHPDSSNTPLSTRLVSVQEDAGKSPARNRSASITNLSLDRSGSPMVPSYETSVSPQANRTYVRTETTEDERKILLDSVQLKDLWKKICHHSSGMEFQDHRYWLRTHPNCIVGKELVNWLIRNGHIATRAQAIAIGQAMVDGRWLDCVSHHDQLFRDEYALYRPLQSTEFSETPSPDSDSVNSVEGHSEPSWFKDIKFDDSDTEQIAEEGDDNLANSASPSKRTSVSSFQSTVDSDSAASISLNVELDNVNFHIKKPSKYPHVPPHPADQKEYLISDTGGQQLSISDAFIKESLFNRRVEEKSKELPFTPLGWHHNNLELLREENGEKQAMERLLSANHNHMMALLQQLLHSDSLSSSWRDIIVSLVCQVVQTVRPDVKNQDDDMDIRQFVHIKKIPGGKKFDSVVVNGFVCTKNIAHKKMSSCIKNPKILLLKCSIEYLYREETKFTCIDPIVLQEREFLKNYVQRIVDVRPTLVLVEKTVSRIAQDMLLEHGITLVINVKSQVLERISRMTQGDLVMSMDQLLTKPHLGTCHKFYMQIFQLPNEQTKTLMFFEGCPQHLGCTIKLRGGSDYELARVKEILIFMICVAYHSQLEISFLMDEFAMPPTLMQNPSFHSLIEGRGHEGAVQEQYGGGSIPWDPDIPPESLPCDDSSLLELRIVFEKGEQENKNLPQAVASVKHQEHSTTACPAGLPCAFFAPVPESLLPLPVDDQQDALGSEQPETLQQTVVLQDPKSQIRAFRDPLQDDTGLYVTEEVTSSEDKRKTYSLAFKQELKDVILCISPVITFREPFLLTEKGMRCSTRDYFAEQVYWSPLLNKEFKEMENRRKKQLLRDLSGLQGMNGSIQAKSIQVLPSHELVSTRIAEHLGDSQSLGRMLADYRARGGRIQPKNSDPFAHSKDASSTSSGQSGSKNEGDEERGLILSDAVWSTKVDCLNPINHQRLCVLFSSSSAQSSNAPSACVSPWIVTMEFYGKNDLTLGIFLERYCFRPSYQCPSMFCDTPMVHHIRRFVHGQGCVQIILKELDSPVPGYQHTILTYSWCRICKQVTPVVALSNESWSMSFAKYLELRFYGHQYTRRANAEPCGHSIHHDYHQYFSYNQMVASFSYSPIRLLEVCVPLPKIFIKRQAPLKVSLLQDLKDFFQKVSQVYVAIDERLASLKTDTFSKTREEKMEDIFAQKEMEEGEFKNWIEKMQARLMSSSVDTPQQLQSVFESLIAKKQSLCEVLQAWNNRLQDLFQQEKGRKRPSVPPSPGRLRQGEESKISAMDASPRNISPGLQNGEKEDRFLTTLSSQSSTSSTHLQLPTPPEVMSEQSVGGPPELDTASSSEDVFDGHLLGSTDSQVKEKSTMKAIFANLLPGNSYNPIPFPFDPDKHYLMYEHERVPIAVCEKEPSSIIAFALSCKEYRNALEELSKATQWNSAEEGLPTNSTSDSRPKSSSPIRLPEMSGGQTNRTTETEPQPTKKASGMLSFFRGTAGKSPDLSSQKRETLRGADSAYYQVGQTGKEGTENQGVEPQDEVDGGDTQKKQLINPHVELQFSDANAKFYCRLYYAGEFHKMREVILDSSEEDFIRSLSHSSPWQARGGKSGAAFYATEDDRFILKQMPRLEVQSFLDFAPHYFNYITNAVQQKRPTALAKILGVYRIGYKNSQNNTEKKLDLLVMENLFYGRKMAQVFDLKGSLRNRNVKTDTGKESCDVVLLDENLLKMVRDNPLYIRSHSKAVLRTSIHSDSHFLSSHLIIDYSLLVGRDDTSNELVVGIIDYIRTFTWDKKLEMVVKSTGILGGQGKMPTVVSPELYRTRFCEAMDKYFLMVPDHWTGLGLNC
Outline: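 GST-tagged full-length PIKfyve (baculovirus-expressed, 2 nM final) with fluorescent PI3P/PS substrate (1 μM PI3P) and […] in HEPES pH 7.5 with Mg2+/Mn2+, 1% DMSO, 3 h at room temperature; 12 concentrations. PI(3,5)P product and substrate separated by microfluidic electrophoresis; % inhibition from product/sum ratio.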

IC50 [3] [µM] | SMILES | C9 iPSC MN Survival hazard ratio [1] | EC50 [2] [µM] | EC50 [1] [µM]
0.0302 | Cc1cccc(-c2ccn(-c3cc(N4CCOCC4)n4nc(C(=O)NC5CC5)cc4n3)n2)c1 [Example 20, N-cyclopropyl-7-morpholino-5-(3-(m-tolyl)-1H-pyrazol-1-yl)pyrazolo[1,5-a]pyrimidine-2-carboxamide] | 0.85 | 0.103 | –
0.0068 | Cc1cccc(-c2ccn(-c3cc(N4CCOCC4)n4nc(-c5cccnc5)cc4n3)n2)c1 [Example 17, 4-(2-(pyridin-3-yl)-5-(3-(m-tolyl)-1H-pyrazol-1-yl)pyrazolo[1,5-a]pyrimidin-7-yl)morpholine] | 0.82 | 0.095 | 1
0.0043 | Cc1cccc(-c2ccn(-c3cc(N4CCOCC4)n4nc(-c5ccncc5)cc4n3)n2)c1 [Example 14, 4-[5-[3-(m-tolyl)pyrazol-1-yl]-2-(4-pyridyl)pyrazolo[1,5-a]pyrimidin-7-yl]morpholine] | 0.94 | 0.144 | > 6
